Test results taken from paper PMC12796986 (Journal of medicinal chemistry, 2025).
Values after ≈ are worked out from the molar mass of the structure shown. Like-named read-outs stand apart in the source and are kept apart here.

Experiments:
[1] = in vitro; details: human, plasma, pH 7.4
[2] = system: VACV-Gluc reporter virus; assay: microbe, parasite or virus in culture; format: cell-based, vaccinia virus; details: for EC50: Orthopoxvirus vaccinia, HFF, 24 h, read-out: VACV EC50
[3] = target: mpox resolvase (Mpr) (Monkeypox virus, UniProt A0A7H0DNC1); assay: biochemical; format: biochemical
mpox resolvase (Mpr), sequence (A0A7H0DNC1 whole entry, looked up): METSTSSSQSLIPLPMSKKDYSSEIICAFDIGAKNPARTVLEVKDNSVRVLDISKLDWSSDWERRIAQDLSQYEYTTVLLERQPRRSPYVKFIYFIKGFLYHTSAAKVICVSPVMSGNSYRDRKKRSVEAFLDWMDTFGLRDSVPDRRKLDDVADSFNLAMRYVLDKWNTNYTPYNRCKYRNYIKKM

[4] = physchem; details: pH 7.2, aqueous buffer, kinetic from dmso stock
[5] = in vitro; details: human, microsomes, pH 7.4
[6] = in vitro; details: human
[7] = in vitro; details: PAMPA
[8] = microsomes
[9] = pH 7.2
[10] = system: fowlpox virus resolvase (Fpr); details: read-out: Fpr IC50; cited from earlier work

Row | SMILES | half-life [1] [h] | SI (selectivity index, CC50 / EC50) [2] | EC50 [2] [nM] | IC50 [3] [nM] | solubility [4] [µM] | half-life [5] [h] | CC50 [6] [nM] | Papp [7] [×10⁻⁶ cm/s] | fold better antiviral potency than brincidofovir [2] [fold] | fold improvement in antiviral potency against VACV over compound 3 [2] [fold] | fold improvement in Mpr inhibition over C-6 regioisomer (compound 3 for 5-1) [3] [fold] | human microsomal stability [8] | solubility [9] | IC50 [10] [nM]
1 | O=c1c(-c2ccccc2)c(O)c2cc(-c3ccc(Oc4ccccc4)cc3)cnc2n1O [4a-3, 1,4-dihydroxy-6-(4-phenoxyphenyl)-3-phenyl-1,8-naphthyridin-2(1H)-one] | > 24 | >1.9 × 10^2 | 1300 ± 400 | 120 ± 10 | 86 ± 5 (≈ 36.3 µg/mL) | 0.715 ± 0.0117 | > 250000 | 8.6 ± 0.8 | – | – | – | – | – | –
2 | O=c1c(-c2ccccc2)c(O)c2cc(-c3ccccc3)cnc2n1O [4a-5, 1,4-dihydroxy-3,6-diphenyl-1,8-naphthyridin-2(1H)-one] | – | >1.0 × 10^2 | 2400 ± 300 | 900 ± 200 | – | – | > 250000 | – | – | – | – | – | – | –
3 | COc1ccc(-c2cnc3c(c2)c(O)c(-c2ccccc2)c(=O)n3O)cc1F [4a-10, 6-(3-fluoro-4-methoxyphenyl)-1,4-dihydroxy-3-phenyl-1,8-naphthyridin-2(1H)-one] | – | >26 | 9700 ± 300 | 1600 ± 200 | – | – | > 250000 | – | – | – | – | – | – | –
4 | CCc1c(O)c2cc(-c3ccc(-c4ccccc4)cc3)cnc2n(O)c1=O [4b-2, 6-([1,1’-biphenyl]-4-yl)-3-ethyl-1,4-dihydroxy-1,8-naphthyridin-2(1H)-one] | > 24 | >6.4 × 10^2 | 390 ± 10 | 360 ± 20 | 1.4 ± 0.1 (≈ 0.502 µg/mL) | > 2 | > 250000 | 3.8 ± 0.1 | – | – | – | – | – | –
5 | CCc1c(O)c2cc(-c3ccc(Oc4ccccc4)cc3)cnc2n(O)c1=O [4b-3, 3-ethyl-1,4-dihydroxy-6-(4-phenoxyphenyl)-1,8-naphthyridin-2(1H)-one] | > 24 | >1.5 × 10^2 | 1600 ± 100 | 320 ± 60 | 47 ± 4 (≈ 17.6 µg/mL) | 0.587 ± 0.0133 | > 250000 | 5.2 ± 0.6 | – | – | – | – | – | –
6 | O=c1c(-c2ccccc2)c(O)c2c(-c3cccc(-c4ccccc4)c3)ccnc2n1O [5-1, 5-([1,1’-biphenyl]-3-yl)-1,4-dihydroxy-3-phenyl-1,8-naphthyridin-2(1H)-one] | > 24 | 4.7 × 10^4 | 3.2 ± 0.7 | 36 ± 1 | 130 ± 4 (≈ 52.8 µg/mL) | > 2 | 150000 | 9 ± 1 | 2 | 400 | 10 | excellent human microsomal stability | acceptable solubility | –
7 | O=c1cc(O)c2c(-c3cccc(-c4ccccc4)c3)ccnc2n1O [5-3, 5-([1,1’-biphenyl]-3-yl)-1,4-dihydroxy-1,8-naphthyridin-2(1H)-one] | – | – | 6000 ± 1000 | 15 ± 1 | – | – | > 250000 | – | – | – | 10 | – | – | –
8 | CSc1ccc(-c2ccnc3c2c(O)cc(=O)n3O)cc1 [5-4, 1,4-dihydroxy-5-(4-(methylthio)phenyl)-1,8-naphthyridin-2(1H)-one] | – | – | – | 120 ± 10 | – | – | – | – | – | – | – | – | – | –
9 | O=c1c(-c2ccccc2)cc2cc(-c3cccc(-c4ccccc4)c3)cnc2n1O [6-1, 6-([1,1’-biphenyl]-3-yl)-1-hydroxy-3-phenyl-1,8-naphthyridin-2(1H)-one] | – | – | – | > 50000 | – | – | – | – | – | – | – | – | – | –
10 | CSc1cccc(-c2cnc3c(c2)cc(-c2ccccc2)c(=O)n3O)c1 [6-2, 1-hydroxy-6-(3-(methylthio)phenyl)-3-phenyl-1,8-naphthyridin-2(1H)-one] | – | – | – | > 50000 | – | – | – | – | – | – | – | – | – | –
11 | CCCCCCCCCCCCCCCCOCCCOP(=O)(O)CO[C@H](CO)Cn1ccc(N)nc1=O [Brincidofovir, brincidofovir, reference compound] | – | >3 × 10^4 | 7 ± 4 | – | – | – | > 250000 | – | – | – | – | – | – | –
12 | O=c1c(-c2ccccc2)c(O)c2cc(-c3cccc(-c4ccccc4)c3)cnc2n1O [compound 3, 6-([1,1’-biphenyl]-3-yl)-1,4-dihydroxy-3-phenyl-1,8-naphthyridin-2(1H)-one] | > 24 | >1.9 × 10^2 | 1300 ± 300 | 340 ± 60 | 130 ± 8 (≈ 52.8 µg/mL) | > 2 | > 250000 | 6 ± 2 | – | – | – | excellent human microsomal stability | acceptable solubility | 300
